Assay results: US5236931A, “2-substituted benzamide and benzoate derivatives of 3-aminoquinuclidine and 3-quinuclidinol” (priority 1992, dated 1993)

Experiments:
[1] = reported by Mikhlina et al; cited from earlier work
[2] = test system: gastric emptying of a test meal; test: Effect on Gastric Emptying of a Test Meal in Rats; assay type: in vivo; settings: rat

Nc1ccc(C(=O)NC2CN3CCC2CC3)cc1 (centres unmarked) [4-amino-N-(1-azabicyclo[2.2.2]oct-3-yl)-benzamide]
reported activities [1]: hypotensive, narcotic and ganglionic stimulation and blocking activities

Cc1nc(COc2cc(N)c(Cl)cc2C(=O)N[C@H]2CN3CCC2CC3)cs1 [Example I (R)-isomer, (R)-(+)-4-Amino-N-(1-azabicyclo[2,2,2]oct-3-yl)-5-chloro-2-[(2-methyl-4-thiazolyl)methoxy]benzamide]
Gastric emptying: % change in meal emptied ([2]; 9.0 mg/kg IP): 34%

Cc1nc(COc2cc(N)c(Cl)cc2C(=O)N[C@@H]2CN3CCC2CC3)cs1 [Example I (S)-isomer, S-(-)-4-Amino-N-(1-azabicyclo[2,2,2]oct-3-yl)-5-chloro-2-[(2-methyl-4-thiazolyl)methoxy]benzamide]
Gastric emptying: % change in meal emptied ([2]; 9.0 mg/kg IP): 43%

Cc1nc(COc2cc(N)c(Cl)cc2C(=O)NC2CN3CCC2CC3)cs1 (centres unmarked) [Example I, 4-Amino-N-(1-azabicyclo[2,2,2]oct-3-yl)-5-chloro-2-[(2-methylthiazol-4-yl)methoxy]benzamide]
Gastric emptying: % change in meal emptied ([2]; 9.0 mg/kg IP): 36%

Nc1cc(OCc2ccccc2)c(C(=O)NC2CN3CCC2CC3)cc1Cl (centres unmarked) [Example V, 4-Amino-N-(1-azabicyclo[2.2.2]oct-3-yl)-5-chloro-2-(phenylmethoxy)benzamide]
Gastric emptying: % change in meal emptied ([2]; 1.0 mg/kg IP): 61%

Nc1cc(OCc2cccc(Cl)c2)c(C(=O)NC2CN3CCC2CC3)cc1Cl (centres unmarked) [Example VI, 4-Amino-N-(1-azabicyclo[2.2.2]oct-3-yl)-5-chloro-2-[(3-chlorophenyl)methoxy]benzamide]
Gastric emptying: % change in meal emptied ([2]; 1.0 mg/kg IP): 52%

Nc1cc(OCc2cccc(I)c2)c(C(=O)NC2CN3CCC2CC3)cc1Cl (centres unmarked) [Example VII, 4-Amino-N-(1-azabicyclo[2.2.2]oct-3-yl)-5-chloro-2-[(3-iodophenyl)methoxy]benzamide]
Gastric emptying: % change in meal emptied ([2]; 0.10 mg/kg IP): 28%

O=C(NC1CN2CCC1CC2)c1ccccc1 (centres unmarked) [N-(1-azabicyclo[2.2.2]oct-3-yl)benzamide]
reported activities [1]: hypotensive, narcotic and ganglionic stimulation and blocking activities
